Data reported in PMC7382816 (BMC Pharmacology & Toxicology, 2020).
Like-named read-outs stand apart in the source and are kept apart here.

Experiments:
[1] = review; ref [26] Swan et al.; cited from earlier work
[2] = Single-dose pharmacokinetics in healthy volunteers under fasting and fed (high-fat breakfast) conditions, plasma concentrations by HPLC-MS, non-compartmental analysis; assay type: in vivo, human; parameters: Ke: unit not given here
Text: The bioequivalence clinical trials were phase I, randomized, open-label, crossover, single-centre, with two periods separated by a 7-day washout stage. Subjects were randomised to one of the two treatment sequences, RT or TR where R was the reference formulation and T was the test formulation. Each of the clinical trial was crossover for evaluation of a test formulation compared to a reference formulation either under fed or fasting conditions. […] The treatments were allocated in a balanced manner on every inclusion day (blocks of 4 subjects). Our study adheres to CONSORT guidelines. […] Sample processing, genotyping for CYP2C19 and drug quantification were performed according to Román et al. […] Pharmacokinetic parameters were estimated from the plasma concentration–time data by non-compartmental analysis (WinNonlin Professional, version 2.0., Pharsight Corporation, USA) as reported by Román et al. […] WinNonLin Professional software version 2.0 was used for the statistical analysis. Pharmacokinetic parameters were log-transformed, and AUC and Cmax were adjusted for dose and weight. The values of pharmacokinetic parameters were expressed as mean ± standard deviation.

[3] = Fed (high-fat breakfast), all subjects, single oral dose, mean ± SD
[4] = both sexes, human, plasma, oral, only CYP2C19*1/*1 subjects, Fast, men and women, mean ± SD
[5] = both sexes, human, plasma, oral, only CYP2C19*1/*1 subjects, Fed, men and women, mean ± SD
[6] = both sexes, human, plasma, po, Fast, all subjects, single oral dose, mean ± SD
[7] = both sexes, human, plasma, po, Fed (high-fat breakfast), all subjects, single oral dose, mean ± SD
[8] = female, human, plasma, oral, only CYP2C19*1/*1 subjects, Fast, women, mean ± SD
[9] = female, human, plasma, oral, only CYP2C19*1/*1 subjects, Fed, women, mean ± SD
[10] = female, human, plasma, po, Fast, women, single oral dose, mean ± SD
[11] = female, human, plasma, po, Fed, women, single oral dose, mean ± SD
[12] = male, human, plasma, oral, only CYP2C19*1/*1 subjects, Fast, men, mean ± SD
[13] = male, human, plasma, oral, only CYP2C19*1/*1 subjects, Fed, men, mean ± SD
[14] = male, human, plasma, po, Fast, men, single oral dose, mean ± SD
[15] = male, human, plasma, po, Fed, men, single oral dose, mean ± SD

## COCCCOc1ccnc(C[S+]([O-])c2nc3ccccc3[nH]2)c1C (centres unmarked) [Rabeprazole, rabeprazole]
[1]
  influence of co-ingestion of food on bioavailability: not influenced
[2]; Fast, all subjects, single oral dose, mean ± SD
  Ke: 0.60 ± 0.20
[2]; Fast, men, single oral dose, mean ± SD
  Ke: 0.64 ± 0.20
[2]; Fast, women, single oral dose, mean ± SD
  Ke: 0.56 ± 0.20
[2]; [3]
  Cmax: 675.8 ± 218.8 ng/mL
  Ke: 0.42 ± 0.22
[2]; Fed, men, single oral dose, mean ± SD
  Ke: 0.38 ± 0.17
[2]; Fed, women, single oral dose, mean ± SD
  Ke: 0.48 ± 0.27
[2]; [4]
  AUC(0-inf): 901 ± 235 ng·h/mL
  CL/F: 6.17 mL/min/kg
  Vd/F: 0.6 ± 0.11 L/kg
  half-life: 1.3 ± 0.6 h
[2]; both sexes, human, plasma, oral, only CYP2C19*1/*1 subjects, Fast, men and women, mean ± SD, read-out: Cmax
  Cmax: 536 ± 138 ng/mL
[2]; both sexes, human, plasma, oral, only CYP2C19*1/*1 subjects, Fast, men and women, mean ± SD, read-out: Tmax
  Tmax: 3.9 ± 0.8 h
[2]; [5]
  AUC(0-inf): 969 ± 388 ng·h/mL
  CL/F: 6.33 mL/min/kg
  Vd/F: 0.92 ± 0.34 L/kg
  half-life: 2 ± 0.9 h
[2]; both sexes, human, plasma, oral, only CYP2C19*1/*1 subjects, Fed, men and women, mean ± SD, read-out: Cmax
  Cmax: 606 ± 207 ng/mL
[2]; both sexes, human, plasma, oral, only CYP2C19*1/*1 subjects, Fed, men and women, mean ± SD, read-out: Tmax
  Tmax: 9.1 ± 3.3 h
[2]; both sexes, human, plasma, oral, under fasting conditions, range among subjects, read-out: Tmax range
  Tmax: 2 to 7 h
[2]; both sexes, human, plasma, oral, under fed conditions, range among subjects, read-out: Tmax range
  Tmax: 3 to 20 h
[2]; [6]
  AUC(0-inf): 972 ± 361 ng·h/mL
  CL/F: 5.83 mL/min/kg
  Vd/F: 0.6 ± 0.17 L/kg
  half-life: 1.3 ± 0.5 h
[2]; both sexes, human, plasma, po, Fast, all subjects, single oral dose, mean ± SD, read-out: Cmax
  Cmax: 556 ± 176 ng/mL
[2]; both sexes, human, plasma, po, Fast, all subjects, single oral dose, mean ± SD, read-out: Tmax
  Tmax: 3.7 ± 0.9 h
[2]; [7]
  AUC(0-inf): 1050 ± 382 ng·h/mL
  CL/F: 5.67 mL/min/kg
  Vd/F: 0.91 ± 0.45 L/kg
  half-life: 2.2 ± 1.3 h
[2]; both sexes, human, plasma, po, Fed (high-fat breakfast), all subjects, single oral dose, mean ± SD, read-out: Tmax
  Tmax: 7.2 ± 2.6 h
[2]; effect of sex (CYP2C19*1/*1 subjects, fed conditions)
  difference in AUC between men and women: around 5%
[2]; fed vs fasting, all subjects
  Cmax higher under fed conditions: 21%
  Delay of mean Tmax (absorption) by food: about 3.5 h
  half-life higher under fed conditions: 66%
[2]; fed vs fasting, only subjects with CYP2C19*1/*1
  Delay of Tmax by food: 5.2 h
[2]; [8]
  AUC(0-inf): 932 ± 172 ng·h/mL
  CL/F: 6.83 mL/min/kg
  Vd/F: 0.61 ± 0.12 L/kg
  half-life: 1.1 ± 0.2 h
[2]; female, human, plasma, oral, only CYP2C19*1/*1 subjects, Fast, women, mean ± SD, read-out: Cmax
  Cmax: 560 ± 136 ng/mL
[2]; female, human, plasma, oral, only CYP2C19*1/*1 subjects, Fast, women, mean ± SD, read-out: Tmax
  Tmax: 3.8 ± 0.7 h
[2]; [9]
  AUC(0-inf): 944 ± 470 ng·h/mL
  CL/F: 7.5 mL/min/kg
  Vd/F: 0.85 ± 0.32 L/kg
  half-life: 1.5 ± 0.9 h
[2]; female, human, plasma, oral, only CYP2C19*1/*1 subjects, Fed, women, mean ± SD, read-out: Cmax
  Cmax: 634 ± 221 ng/mL
[2]; female, human, plasma, oral, only CYP2C19*1/*1 subjects, Fed, women, mean ± SD, read-out: Tmax
  Tmax: 8.2 ± 0.6 h
[2]; [10]
  AUC(0-inf): 1120 ± 361 ng·h/mL
  CL/F: 5.83 mL/min/kg
  Vd/F: 0.65 ± 0.2 L/kg
  half-life: 1.4 ± 0.5 h
[2]; female, human, plasma, po, Fast, women, single oral dose, mean ± SD, read-out: Cmax
  Cmax: 638 ± 177 ng/mL
[2]; female, human, plasma, po, Fast, women, single oral dose, mean ± SD, read-out: Tmax
  Tmax: 3.7 ± 0.9 h
[2]; [11]
  AUC(0-inf): 1050 ± 420 ng·h/mL
  CL/F: 6.33 mL/min/kg
  Vd/F: 0.92 ± 0.37 L/kg
  half-life: 2 ± 1.3 h
[2]; female, human, plasma, po, Fed, women, single oral dose, mean ± SD, read-out: Cmax
  Cmax: 728 ± 284 ng/mL
[2]; female, human, plasma, po, Fed, women, single oral dose, mean ± SD, read-out: Tmax
  Tmax: 7.6 ± 2 h
[2]; [12]
  AUC(0-inf): 870 ± 296 ng·h/mL
  CL/F: 5.5 mL/min/kg
  Vd/F: 0.59 ± 0.1 L/kg
  half-life: 1.5 ± 0.7 h
[2]; male, human, plasma, oral, only CYP2C19*1/*1 subjects, Fast, men, mean ± SD, read-out: Cmax
  Cmax: 512 ± 147 ng/mL
[2]; male, human, plasma, oral, only CYP2C19*1/*1 subjects, Fast, men, mean ± SD, read-out: Tmax
  Tmax: 3.9 ± 1 h
[2]; [13]
  AUC(0-inf): 1000 ± 323 ng·h/mL
  CL/F: 5 mL/min/kg
  Vd/F: 1.02 ± 0.39 L/kg
  half-life: 2.5 ± 0.7 h
[2]; male, human, plasma, oral, only CYP2C19*1/*1 subjects, Fed, men, mean ± SD, read-out: Cmax
  Cmax: 572 ± 215 ng/mL
[2]; male, human, plasma, oral, only CYP2C19*1/*1 subjects, Fed, men, mean ± SD, read-out: Tmax
  Tmax: 10.3 ± 5.1 h
[2]; [14]
  AUC(0-inf): 836 ± 313 ng·h/mL
  CL/F: 5.83 mL/min/kg
  Vd/F: 0.55 ± 0.11 L/kg
  half-life: 1.2 ± 0.5 h
[2]; male, human, plasma, po, Fast, men, single oral dose, mean ± SD, read-out: Cmax
  Cmax: 479 ± 140 ng/mL
[2]; male, human, plasma, po, Fast, men, single oral dose, mean ± SD, read-out: Tmax
  Tmax: 3.6 ± 0.9 h
[2]; [15]
  AUC(0-inf): 1050 ± 361 ng·h/mL
  CL/F: 5.17 mL/min/kg
  Vd/F: 0.91 ± 0.52 L/kg
  half-life: 2.3 ± 1.3 h
[2]; male, human, plasma, po, Fed, men, single oral dose, mean ± SD, read-out: Cmax
  Cmax: 635 ± 145 ng/mL
[2]; male, human, plasma, po, Fed, men, single oral dose, mean ± SD, read-out: Tmax
  Tmax: 6.9 ± 3 h
[2]; only CYP2C19*1/*1 subjects, Fast, men and women, mean ± SD
  Ke: 0.63 ± 0.20
[2]; only CYP2C19*1/*1 subjects, Fast, men, mean ± SD
  Ke: 0.57 ± 0.25
[2]; only CYP2C19*1/*1 subjects, Fast, women, mean ± SD
  Ke: 0.68 ± 0.13
[2]; only CYP2C19*1/*1 subjects, Fed, men and women, mean ± SD
  Ke: 0.45 ± 0.23
[2]; only CYP2C19*1/*1 subjects, Fed, men, mean ± SD
  Ke: 0.30 ± 0.11
[2]; only CYP2C19*1/*1 subjects, Fed, women, mean ± SD
  Ke: 0.57 ± 0.25
